Experimental data: US9995734B2, “Human T cell line assay for evaluating the immunologic identity of glatiramer acetate preparations” (Mylan Inc., priority 2013, dated 2018)

System: Donor 1 COP T-Cell Lines
Experiment: Multiplex bead cytokine assay (FlowCytoMix), Donor 1 COP T-cell lines
Assay type: cell-based, human
Method: Culture medium was removed from cultures prepared as for proliferation assay and utilized to measure cytokine production. In most cases culture medium was collected 18-24 hours after mixing T-cells, APC, and stimulating antigen. Cytokine production was measured by ELISA or bead assay. For measuring cytokine production, 100-150 μL culture medium (100 μL if culture was to be continued, otherwise 150 μL) was removed from each well. In some cases, the culture was continued 48 hours, for a total of 72 hours of culture, and the proliferative response measured.
The concentration of multiple cytokines was measured simultaneously using FlowCytoMix™ kits (eBioscience, San Diego Calif.). These are fluorescent bead based assays consisting of beads conjugated to anti cytokine antibodies. Beads specific for each cytokine are distinguished by size and fluorescence at 670 run. Cytokine bound to each bead is detected using a phycoerythrin conjugated antibody so that the fluorescence at 585 nm reflects the concentration of cytokine in the sample. Two kits were utilized which measured different cytokine panels. The TH1/TH2 kit measures IFN-γ, IL-1β, IL-2, IL-4, IL-5, IL-6, IL-8, IL-10, IL-12p70, TNF-α (TNF) and TNF-β (LT). The TH1/TH2/TH9/TH17/TH22 kit measures […], IL-1β, IL-2, IL-4, IL-5, IL-6, IL-9, IL-10, IL-12p70, IL-13, IL-17, IL-22, and TNF-α (TNF). Both kits were used following the manufacturer's instructions.
IL-12p70, IFN-γ, IL-2, IL-10, IL-8, IL-6, IL-5, IL-4, IL-1β, TNF-α (TNF), and TNF-β (LT) secretion were measured in response to stimulation with 1, 3, or 10 μg/mL GMA, or 1, 3, or 10 μg/mL COP, as well as a no-antigen control and an MBP control, in the presence of autologous EBV-transformed B-LCL.

[1] = 222-1C5, 1 μg/mL, 24 hours after Day 56 restimulation
[2] = 222-1C5, 3 μg/mL, 24 hours after Day 56 restimulation
[3] = 222-1C5, 10 μg/mL, 24 hours after Day 56 restimulation
[4] = 222-1C5, 10 μg/mL, Day 34 supernatants
[5] = 222-1H12, 10 μg/mL, Day 34 supernatants
[6] = 222-2B8, 1 μg/mL, 24 hours after Day 56 restimulation
[7] = 222-2B8, 3 μg/mL, 24 hours after Day 56 restimulation
[8] = 222-2B8, 10 μg/mL, 24 hours after Day 56 restimulation
[9] = 222-2D2, 10 μg/mL, Day 34 supernatants
[10] = 222-2D8, 10 μg/mL, Day 34 supernatants

glatiramer acetate [GMA] was tested, and the IFN-γ [1] was 181 pg/mL, the IL-2 [1] was 30 pg/mL and the IL-5 [1] was 0 pg/mL. The IL-10 [1] was 11 pg/mL, the IL-13 [1] was 154 pg/mL and the IL-22 [1] was 39 pg/mL. The TNF-α [1] was 3 pg/mL, the IFN-γ [2] was 325 pg/mL and the IL-2 [2] was 83 pg/mL. It also gave an IL-5 [2] of 0 pg/mL, an IL-10 [2] of 38 pg/mL and an IL-13 [2] of 316 pg/mL. The IL-22 [2] was 101 pg/mL, the TNF-α [2] was 72 pg/mL and the IFN-γ [3] was 664 pg/mL. The IL-2 [3] was 0 pg/mL, the IL-5 [3] was 0 pg/mL and the IL-10 [3] was 55 pg/mL. For the same substance, the IL-13 [3] was 942 pg/mL, the IL-22 [3] was 0 pg/mL and the TNF-α [3] was 80 pg/mL. It also gave an IFN-γ [4] of 511.42 pg/mL, an IL-1β [4] of 94.12 pg/mL and an IL-2 [4] of 185.35 pg/mL. The IL-5 [4] was 67.83 pg/mL, the IL-8 [4] was “<= 0 pg/mL” and the IL-10 [4] was 77.88 pg/mL. The TNF-α [4] was 31.35 pg/mL, the TNF-β [4] was 29.94 pg/mL and the IFN-γ [5] was 3138 pg/mL. It also gave an IL-1β [5] of 20 pg/mL, an IL-2 [5] of 152 pg/mL and an IL-4 [5] of 99 pg/mL. For the same substance, the IL-5 [5] was 336 pg/mL, the IL-10 [5] was 234 pg/mL and the TNF-α [5] was 83 pg/mL. The TNF-β [5] was 102 pg/mL, the IFN-γ [6] was 1.88 pg/mL and the IL-2 [6] was 0 pg/mL. For the same substance, the IL-5 [6] was 0 pg/mL, the IL-10 [6] was 0 pg/mL and the IL-13 [6] was 183.09 pg/mL. For the same substance, the IL-22 [6] was 0 pg/mL, the TNF-α [6] was 0 pg/mL and the IFN-γ [7] was 44.52 pg/mL. The IL-2 [7] was 1.6 pg/mL, the IL-5 [7] was 78.29 pg/mL and the IL-10 [7] was 1.8 pg/mL. It also gave an IL-13 [7] of 1214.45 pg/mL, an IL-22 [7] of 63.98 pg/mL and a TNF-α [7] of 0 pg/mL. For the same substance, the IFN-γ [8] was 140.65 pg/mL, the IL-2 [8] was 0 pg/mL and the IL-5 [8] was 400.46 pg/mL. For the same substance, the IL-10 [8] was 41 pg/mL, the IL-13 [8] was 3162.51 pg/mL and the IL-22 [8] was 124.15 pg/mL. For the same substance, the TNF-α [8] was 96.57 pg/mL, the IFN-γ [9] was 53.75 pg/mL and the IL-1β [9] was 103.85 pg/mL. The IL-2 [9] was 55.42 pg/mL, the IL-5 [9] was 29.13 pg/mL and the IL-8 [9] was “<= 0 pg/mL”. For the same substance, the IL-10 [9] was 26.12 pg/mL, the TNF-α [9] was 5.35 pg/mL and the TNF-β [9] was 5.79 pg/mL. For the same substance, the “IL-4, IL-6, or IL-12 detected” value (222-2D8, 222-1H12, 222-1C5, 222-2D2, Day 34 supernatants) was “Little or no”, the IFN-γ [10] was 2616 pg/mL and the IL-1β [10] was 2420 pg/mL. The IL-2 [10] was 52 pg/mL, the IL-4 [10] was 41 pg/mL and the IL-5 [10] was 1501 pg/mL. It also gave an IL-10 [10] of 107 pg/mL and a TNF-α [10] of 405 pg/mL.
